This experiment has as its system LSL-KrasG12D/+; LSL-Trp53R172H/+; Pdx1-Cre (KPC) mouse model of pancreatic cancer. Put plainly: Survival of KPC mice with pancreatic cancer from start of treatment (Kaplan-Meier, Log-Rank). The format is in vivo. The text has this: • Test antibody and drug Anti-gremlin-1 antibody-Ab7326 mlgG1-APP.4405.IgG.mFc-Lot number-PB 4682 • Vehicle-Phosphate Buffered Saline pH 7.4 (provided by the Beatson Institute) • Gemcitabine-(provided by the Beatson Institute, purchased from LC Labs, Woburn, MA, USA) in Phosphate Buffered Saline pH 7.4. • Genetically Modified Mice • LSL-Kras^G12D/+; Trp53^R172H/+; Pdx1-Cre (KPC) mice have been described previously (Hingorani et al., 2005). Mice were generated by crossing mice bearing Pdx1-Cre, and conditional LSL-KrasG12D or LSL-Trp53R172H alleles (strains 01XJ6 and 01XL9, Mouse Models of Human Cancer Consortium [MMHCC], NCI-Frederick, Frederick, MD, USA). Mice on a mixed background were bred in-house at the CRUK Beatson Institute and maintained in conventional caging with environmental enrichment, access to standard chow and water ad libitum. Genotyping was performed by Transnetyx (Cordoba, TN, USA). Mice of both sexes were recruited onto study. All animal experiments were performed under a UK Home Office licence and approved by the University of Glasgow Animal Welfare and Ethical Review Board.
Mice were monitored 3 times weekly until a diagnosis of pancreatic cancer was made by abdominal palpation and confirmed by ultrasound imaging. […] Mice were monitored daily and sacrificed when reaching ethical endpoint (symptoms include abdominal distension, cachexia, intermittent hunching or reduced mobility, piloerection, mild diarrhoea, anaemia). […]
Next, the efficacy of gremlin-1 inhibition as a potential therapeutic approach for pancreatic cancer was tested in the KPC model. […] A cohort of KPC mice was established and mice were monitored until they developed pancreatic cancer detectable by palpation.
Mice were monitored at least weekly by palpation until pancreatic tumours were detectable. […] Mice remained on study and were closely monitored until ethical endpoint was reached, at which time they were sacrificed as per institutional guidelines.

Where “and” joins values, the source holds several entries; their conditions need not be identical. Equal values may be shown once.

Turning to `Nc1ccn([C@@H]2O[C@H](CO)[C@@H](O)C2(F)F)c(=O)n1` [Gemcitabine, 2′-deoxy-2′,2′-difluorocytidine, reference compound], for the setting “KPC mice, result in words”, the “survival compared with vehicle controls” value is recorded as “negligible benefit”. Where the note is “KPC mice, survival from start of treatment, dosing twice weekly (Ab7326 mlgG1 30 mg/kg s.c.; gemcitabine 100 mg/kg i.p.)”, the “Median (days) survival” value was found to be 24 days. For the same compound, for the setting “one value per KPC mouse, * denotes smaller than average tumour at start of treatment”, the “Days on Rx (individual mice)” value was 3 days and 34 days and 24 days and 44 days and 17 days.

For the origin of these results see patent US20250243267A1, “COMBINATION OF A GREMLIN-1 ANTAGONIST WITH A CYTIDINE ANALOGUE OR DEOXYCYTIDINE ANALOGUE” (UCB BIOPHARMA SRL, priority 2022, published 2025).
